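All cell lines were grown in 96-well plates and treated with compound for 48 hours. TGI: total growth inhibition.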
How the values were obtained:
Test in all cases: growth of human tumour cells (NCI), 48 h
UACC-257 melanoma = system: UACC-257 melanoma
UACC-62 melanoma = system: UACC-62 melanoma
HCC-2998 colon = system: HCC-2998 colon
SNB-75 CNS = system: SNB-75 CNS
SF-268 CNS = system: SF-268 CNS
MOLT-4 leukemia = system: MOLT-4 leukemia
NCI-H226 lung = system: NCI-H226 lung
MDA-MB-435 = system: MDA-MB-435
T-47D breast = system: T-47D breast
MDA-MB-231 breast = system: MDA-MB-231 breast
HOP-92 NSCLC = system: HOP-92 NSCLC
HCT-15 colon = system: HCT-15 colon
U251 CNS = system: U251 CNS
MDA-N = system: MDA-N
PC-3 prostate = system: PC-3 prostate
786-0 renal = system: 786-0 renal
A498 renal = system: A498 renal
ACHN renal = system: ACHN renal
HCT-116 colon = system: HCT-116 colon

SMILES	TGI (UACC-257 melanoma)	TGI (UACC-62 melanoma)	TGI (HCC-2998 colon)	TGI (SNB-75 CNS)	TGI (SF-268 CNS)	TGI (MOLT-4 leukemia)	TGI (NCI-H226 lung)	TGI (MDA-MB-435)	TGI (T-47D breast)	TGI (MDA-MB-231 breast)	TGI (HOP-92 NSCLC)	TGI (HCT-15 colon)	TGI (U251 CNS)	TGI (MDA-N)	TGI (PC-3 prostate)	TGI (786-0 renal)	TGI (A498 renal)	TGI (ACHN renal)	TGI (HCT-116 colon)
N#Cc1nc(CCC(C(=O)O)N2C(=O)c3ccccc3C2=O)oc1N (configuration not stated)	> 100 µM	> 100 µM	> 100 µM	> 100 µM	> 100 µM	> 100 µM	> 100 µM	> 100 µM	> 100 µM	> 100 µM	> 100 µM	> 100 µM	> 100 µM	> 100 µM	> 100 µM	> 100 µM	> 100 µM	> 100 µM	
CCOC(=O)c1sc(N)nc1N1CCCC1	> 100 µM	> 100 µM		> 100 µM		> 100 µM	> 100 µM	> 100 µM	> 100 µM	> 100 µM	> 100 µM	> 100 µM	> 100 µM	> 100 µM	> 100 µM	> 100 µM	> 100 µM	> 100 µM	> 100 µM
COc1ccc(CCN2C(=O)C(=O)C(C(=O)c3ccccc3)C2c2ccccc2)cc1OC (configuration not stated)	> 100 µM	> 100 µM	> 100 µM		> 100 µM	> 100 µM		> 100 µM	> 100 µM	> 100 µM	> 100 µM	> 100 µM	> 100 µM	> 100 µM	> 100 µM	> 100 µM	> 100 µM	> 100 µM	> 100 µM
Cc1ccc(Nc2nc3ccccc3nc2NS(=O)(=O)c2ccc(N)cc2)cc1	> 100 µM	> 100 µM	6.55 µM	> 100 µM	> 100 µM	81.8 µM	> 100 µM	> 100 µM	> 100 µM	> 100 µM	> 100 µM	> 100 µM	> 100 µM	> 100 µM	> 100 µM	> 100 µM		> 100 µM	> 100 µM
O=C1OCC2=C1C(c1ccc(Cl)cc1)c1cc3c(cc1O2)OCO3 (configuration not stated)	> 100 µM	> 100 µM	> 100 µM	> 100 µM	> 100 µM	46.3 µM	> 100 µM	5.31 µM	> 100 µM	> 100 µM	> 100 µM	> 100 µM		3.9 µM	> 100 µM	> 100 µM	> 100 µM	> 100 µM	> 34.6 µM
COCc1nc(C#N)c(N)o1	> 10 µM	> 10 µM	> 10 µM	> 10 µM	> 10 µM	> 10 µM	> 10 µM	> 10 µM	> 10 µM	> 10 µM	> 10 µM	> 10 µM		> 10 µM	> 10 µM	> 10 µM		> 10 µM	> 10 µM
CCOC(=O)c1nc2ccccc2nc1Oc1ccc(F)cc1	> 100 µM	> 100 µM		> 100 µM	> 100 µM		> 100 µM	> 100 µM	> 100 µM	> 100 µM	> 100 µM	> 100 µM	> 100 µM	> 100 µM	> 100 µM	> 100 µM	> 100 µM	> 100 µM	> 100 µM
